Here are results for two molecules from ChEMBL document CHEMBL1122324, “New antihypertensive cannabinoids” (1983).

Molecules are shown by their SMILES.

Holding throughout (details): route oral
The test system of experiment [1] is Rattus norvegicus. Kind of experiment: Percentage decrease in systolic blood pressure (heart rate) after 1 hr at 0.3 mg/kg administered perorally in rats. The experiment is classed as functional, Artery.
The subject of experiment [2] is Rattus norvegicus. Kind of experiment: Percentage decrease in systolic blood pressure (heart rate) after 1 hr at 10 mg/kg administered perorally in rats. It counts as functional, Artery.
Experiment [3] concerns Rattus norvegicus. Kind of experiment: Percentage decrease in systolic blood pressure (heart rate) after 24 hr at 10 mg/kg administered perorally in rats. The experiment is classed as functional, Artery.
Experiment [4] deals with Rattus norvegicus. The experiment in a line: Effect on spontaneous motor activity in rats after 2 hr at 30 mg/kg given perorally. It counts as functional.
For experiment [5], the system named is Rattus norvegicus. The experiment in a line: Effect on spontaneous motor activity in rats after 2 hr at 3 mg/kg given perorally. The experiment is classed as functional.
The test system of experiment [6] is Rattus norvegicus. The experiment in a line: Cumulative effect on spontaneous motor activity in rats at 0.1 mg/kg given perorally. It counts as functional.
For experiment [7], the system named is Rattus norvegicus. The experiment in a line: Effect on spontaneous motor activity in rats after 2 hr at 0.1 mg/kg given perorally. It counts as functional.
Experiment [8] relates to Rattus norvegicus. Kind of experiment: Percentage decrease in systolic blood pressure (heart rate) after 4 hr at 0.3 mg/kg administered perorally in rats. It counts as functional, Artery.
For experiment [9], the system named is Rattus norvegicus. Kind of experiment: Effect on spontaneous motor activity in rats after 1 hr at 0.3 mg/kg given perorally. The experiment is classed as functional.
For experiment [10], the system named is Rattus norvegicus. Kind of experiment: Effect on spontaneous motor activity in rats after 1 hr at 1 mg/kg given perorally. It counts as functional.
In experiment [11] the test system is Rattus norvegicus. Kind of experiment: Effect on spontaneous motor activity in rats after 2 hr at 1 mg/kg given perorally. It counts as functional.
Experiment [12] has as its system Rattus norvegicus. Kind of experiment: Percentage decrease in systolic blood pressure (heart rate) after 6 hr at 0.3 mg/kg administered perorally in rats. The experiment is classed as functional, Artery.
The subject of experiment [13] is Rattus norvegicus. The experiment in a line: Effect on spontaneous motor activity in rats after 1 hr at 3 mg/kg given perorally. It counts as functional.
Experiment [14] concerns Rattus norvegicus. Kind of experiment: Percentage decrease in systolic blood pressure (heart rate) after 6 hr at 3 mg/kg administered perorally in rats. The experiment is classed as functional, Artery.
The subject of experiment [15] is Rattus norvegicus. The experiment in a line: Effect on spontaneous motor activity in rats after 2 hr at 10 mg/kg given perorally. It counts as functional.
In experiment [16] the test system is Rattus norvegicus. Kind of experiment: Cumulative effect on spontaneous motor activity in rats at 3 mg/kg given perorally. It counts as functional.
The subject of experiment [17] is Rattus norvegicus. Kind of experiment: Percentage decrease in systolic blood pressure (heart rate) after 4 hr at 10 mg/kg administered perorally in rats. The experiment is classed as functional, Artery.
In experiment [18] the test system is Rattus norvegicus. The experiment in a line: Effect on spontaneous motor activity in rats after 2 hr at 0.3 mg/kg given perorally. The experiment is classed as functional.
In experiment [19] the test system is Rattus norvegicus. The experiment in a line: Percentage decrease in systolic blood pressure (heart rate) after 24 hr at 0.3 mg/kg administered perorally in rats. The experiment is classed as functional, Artery.
In experiment [20] the test system is Rattus norvegicus. The experiment in a line: Effect on spontaneous motor activity in rats after 1 hr at 10 mg/kg given perorally. It counts as functional.
Experiment [21] relates to Rattus norvegicus. Kind of experiment: Percentage decrease in systolic blood pressure (heart rate) after 24 hr at 1 mg/kg administered perorally in rats. The experiment is classed as functional, Artery.
For experiment [22], the system named is Rattus norvegicus. The experiment in a line: Effect on spontaneous motor activity in rats after 1 hr at 0.1 mg/kg given perorally. It counts as functional.
Experiment [23] concerns Rattus norvegicus. Kind of experiment: Percentage decrease in systolic blood pressure (heart rate) after 6 hr at 1 mg/kg administered perorally in rats. It counts as functional, Artery.
For experiment [24], the system named is Rattus norvegicus. The experiment in a line: Percentage decrease in systolic blood pressure (heart rate) after 4 hr at 1 mg/kg administered perorally in rats. It counts as functional, Artery.
Experiment [25] concerns Rattus norvegicus. The experiment in a line: Cumulative effect on spontaneous motor activity in rats at 300 mg/kg given perorally. The experiment is classed as functional.
In experiment [26] the test system is Rattus norvegicus. The experiment in a line: Percentage decrease in systolic blood pressure (heart rate) after 4 hr at 3 mg/kg administered perorally in rats. It counts as functional, Artery.
Experiment [27] relates to Rattus norvegicus. The experiment in a line: Effect on spontaneous motor activity in rats after 1 hr at 30 mg/kg given perorally. The experiment is classed as functional.
For experiment [28], the system named is Rattus norvegicus. The experiment in a line: Percentage decrease in systolic blood pressure (heart rate) after 1 hr at 3 mg/kg administered perorally in rats. The experiment is classed as functional, Artery.
The subject of experiment [29] is Rattus norvegicus. The experiment in a line: Cumulative effect on spontaneous motor activity in rats at 0.3 mg/kg given perorally. It counts as functional.
The subject of experiment [30] is Rattus norvegicus. Kind of experiment: Percentage decrease in systolic blood pressure (heart rate) after 24 hr at 100 mg/kg administered perorally in rats. It counts as functional, Artery.
The test system of experiment [31] is Rattus norvegicus. Kind of experiment: Percentage decrease in systolic blood pressure (heart rate) after 4 hr at 100 mg/kg administered perorally in rats. It counts as functional, Artery.

Regarding `CCCCCCCc1cc(O)c2c(c1)OC(C)(C)c1ccc(C)cc1-2`, the “Decrease in Systolic blood pressure” value with Rattus norvegicus [1] is 3%; in the experiment with Rattus norvegicus [2], 9%; with Rattus norvegicus [3], 29%; in the experiment with Rattus norvegicus [8], 10%; in the experiment with Rattus norvegicus [12], 2%; in the experiment with Rattus norvegicus [14], 38%. Moreover, the “Decrease in Systolic blood pressure” value was 58% with Rattus norvegicus [17]; 0% with Rattus norvegicus [19]; -7% with Rattus norvegicus [21]; 33% in the experiment on Rattus norvegicus [23]; 20% with Rattus norvegicus [24]; 44% in the experiment on Rattus norvegicus [26]. For the same molecule, the “Decrease in Systolic blood pressure” value in the experiment with Rattus norvegicus [28] stood at 3%. In addition, the Activity is recorded as -94% in the experiment on Rattus norvegicus [4]; -17% in the experiment with Rattus norvegicus [5]; -2% in the experiment on Rattus norvegicus [6]; 10% in the experiment with Rattus norvegicus [7]; -21% with Rattus norvegicus [9]; -32% in the experiment with Rattus norvegicus [10]. Moreover, the Activity with Rattus norvegicus [11] is listed as 87%; in the experiment on Rattus norvegicus [13], -20%; in the experiment on Rattus norvegicus [15], -98%; with Rattus norvegicus [16], -20%; with Rattus norvegicus [18], 28%; in the experiment with Rattus norvegicus [20] it was -46%. The Activity is -3% in the experiment on Rattus norvegicus [22], -89% in the experiment with Rattus norvegicus [25], -88% with Rattus norvegicus [27] and -17% in the experiment with Rattus norvegicus [29].

On to `CCCCCc1cc(O)c2c(c1)OC(C)(C)[C@@H]1CCC(C)=C[C@@H]21` [DRONABINOL], for which the “Decrease in Systolic blood pressure” value was 21% with Rattus norvegicus [30] and 39% in the experiment on Rattus norvegicus [31].
